Test results published in ChEMBL document CHEMBL1127781, “Antitumor agents. 7. Synthesis and antitumor activity of novel hexacyclic camptothecin analogues” (J Med Chem, 1994).
In brackets after ≈: the same amount, converted by molar mass.

How the values were obtained:
QG-56 = test: Tested in vitro for the inhibition of QG-56 (human lung squamous cell carcinoma) cell line by MTT assay; type: functional, cell-based
P388 [1] = test: Tested in vitro for the inhibition of P388 (mouse leukemia) cell line by MTT assay; type: functional, cell-based
HOC-21 cell line = test: Tested in vitro for the inhibition of HOC-21(human ovarian cancer) cell line by MTT assay; type: functional, cell-based
[2] = Tested for (median survival time of treated/control animals) x100 at dosage of 480 mg/kg.; type: functional
Mus musculus [3] = test: Tested for (median survival time of treated/control animals) x100 at dosage of 240 mg/kg.; type: functional
Mus musculus [4] = test: Tested for (median survival time of treated/control animals) x100 at dosage of 120 mg/kg.; type: functional
Mus musculus [5] = test: Tested for (median survival time of treated/control animals) x100 at dosage of 60 mg/kg.; type: functional
[6] = Tested for median survival time of treated/control animals) x100 at dosage of 240 mg/kg.; type: functional
[7] = Tested for median survival time of treated/control animals) x100 at dosage of 60 mg/kg.; type: functional
[8] = Tested for median survival time of treated/control animals) x100 at dosage of 120 mg/kg.; type: functional
[9] = Tested for median survival time of treated/control animals) x100 at dosage of 480 mg/kg.; type: functional
[10] = Tested for median survival time of treated/control animals) x100 at dosage of 30 mg/kg.; type: functional
[11] = Tested for (median survival time of treated/control animals) x100 at dosage of 30 mg/kg.; type: functional
[12] = Tested for (median survival time of treated/control animals) x100 at dosage of 60 mg/kg; type: functional
[13] = Tested for (median survival time of treated/control animals) x100 at dosage of 120 mg/kg; type: functional
[14] = Tested for (median survival time of treated/control animals) x100 at dosage of 240 mg/kg; type: functional
[15] = Tested for (median survival time of treated/control animals) x100 at dosage of 30 mg/kg; type: functional
P388 [16] = test: Tested in vitro for the inhibition of P388 (mouse leukemia) cell line by MTT assay; 1.95-6.93 ng/mL; type: functional, cell-based

SMILES | IC50 (QG-56) [ng/mL] | IC50 (P388 [1]) [ng/mL] | IC50 (HOC-21 cell line) [ng/mL] | T/C (Mus musculus [4]) [%] | other results
CC[C@@]1(O)C(=O)OCc2c1cc1n(c2=O)Cc2c-1nc1ccc(C)c3c1c2CCC3 | 0.68 (≈ 0.00169 µM) | 0.78 (≈ 0.00194 µM) | 5.88 (≈ 0.0146 µM) |  | 
CCC1(O)C(=O)OCc2c1cc1n(c2=O)Cc2c-1nc1ccc(C)c3c1c2CCN3 (racemic) | 1.68 (≈ 0.00416 µM) |  | 41.8 (≈ 0.104 µM) | 207 | T/C [2]: 180%; T/C (Mus musculus [3]): 174%
CCC1(O)C(=O)OCc2c1cc1n(c2=O)Cc2c-1nc1cccc(COC(C)=O)c1c2COC(C)=O (stereo not given) | 7.41 (≈ 0.015 µM) | 40.5 (≈ 0.0822 µM) | > 500 |  | 
CCC1(O)C(=O)OCc2c1cc1n(c2=O)Cc2c-1nc1cccc(CN)c1c2C (stereo not given) | 6.36 (≈ 0.0162 µM) | 5.02 (≈ 0.0128 µM) | 44.8 (≈ 0.114 µM) |  | 
CC[C@@]1(O)C(=O)OCc2c1cc1n(c2=O)Cc2c-1nc1ccc(O)c3c1c2CCC3 | 0.26 (≈ 0.000643 µM) | 1.6 (≈ 0.00396 µM) | 12.6 (≈ 0.0312 µM) |  | 
CC[C@@]1(O)C(=O)OCc2c1cc1n(c2=O)Cc2c-1nc1cccc3c1c2CCCC3 | 1.73 (≈ 0.0043 µM) | 1.22 (≈ 0.00303 µM) | 15.6 (≈ 0.0388 µM) |  | 
CCC1(O)C(=O)OCc2c1cc1n(c2=O)Cc2c-1nc1ccc(C)c3c1c2CCO3 (racemic) | 1.38 (≈ 0.00341 µM) | 4.5 (≈ 0.0111 µM) | 41.9 (≈ 0.104 µM) | 273 | T/C [2]: >376%; T/C (Mus musculus [3]): 376%; T/C (Mus musculus [5]): 260%
CCC1(O)C(=O)OCc2c1cc1n(c2=O)Cc2c-1nc1ccc(O)c3c1c2CCC3 (racemic) | 0.5 (≈ 0.00124 µM) | 3.8 (≈ 0.0094 µM) | 26.4 (≈ 0.0653 µM) |  | T/C [6]: >392%; T/C [7]: 201%; T/C [8]: 354%; T/C [9]: 88.5%; T/C [10]: 182%
CC[C@@]1(O)C(=O)OCc2c1cc1n(c2=O)Cc2c-1nc1cccc3c1c2COC3 | 1.14 (≈ 0.00292 µM) | 0.95 (≈ 0.00243 µM) | 12.3 (≈ 0.0315 µM) |  | 
CCC1(O)C(=O)OCc2c1cc1n(c2=O)Cc2c-1nc1ccc(O)c3c1c2CC3 (racemic) | 1.25 (≈ 0.0032 µM) | 2.22 (≈ 0.00569 µM) | 15.9 (≈ 0.0407 µM) | 110 | T/C [2]: 78.2%; T/C [11]: 167%; T/C (Mus musculus [3]): 90.9%; T/C (Mus musculus [5]): 206%
CC[C@@]1(O)C(=O)OCc2c1cc1n(c2=O)Cc2cc3ccccc3nc2-1 [CAMPTOTHECIN] | 4.63 (≈ 0.0133 µM) | 4.74 (≈ 0.0136 µM) | 14.7 (≈ 0.0422 µM) |  | T/C [12]: 142%; T/C [13]: 176%; T/C [14]: 144%; T/C [15]: 130%
CC[C@@]1(O)C(=O)OCc2c1cc1n(c2=O)Cc2c-1nc1cccc(C)c1c2C | 0.6 (≈ 0.00159 µM) | 3.76 (≈ 0.00999 µM) | > 500 |  | 
CCC1(O)C(=O)OCc2c1cc1n(c2=O)Cc2cc3ccccc3nc2-1 (racemic) |  |  |  |  | T/C [12]: 128%; T/C [13]: 148%; T/C [14]: 163%; T/C [15]: 128%
CCC1(O)C(=O)OCc2c1cc1n(c2=O)Cc2c-1nc1ccc(O)c3c1c2CCO3 (racemic) | 1.1 (≈ 0.00271 µM) |  | 79 (≈ 0.194 µM) | 233 | T/C [2]: 19%; T/C [11]: 147%; T/C (Mus musculus [3]): 20%; T/C (Mus musculus [5]): 221%
CCC1(O)C(=O)OCc2c1cc1n(c2=O)Cc2c-1nc1ccc(C)c3c1c2CCS3 (racemic) | 3.36 (≈ 0.00799 µM) | 3.77 (≈ 0.00897 µM) | 35.8 (≈ 0.0851 µM) | 293 | T/C [6]: 290%; T/C [9]: >400%; T/C [11]: 205%; T/C (Mus musculus [5]): 224%
CC[C@@]1(O)C(=O)OCc2c1cc1n(c2=O)Cc2c-1nc1cccc3c1c2CNC3 | 2.98 (≈ 0.00765 µM) | 3.39 (≈ 0.00871 µM) | 37.8 (≈ 0.0969 µM) |  | 
CCc1c2c(nc3ccc(O)cc13)-c1cc3c(c(=O)n1C2)COC(=O)[C@]3(O)CC [7-ETHYL-10-HYDROXYCAMPTOTHECIN] | 3.17 (≈ 0.00808 µM) |  | 123 (≈ 0.314 µM) | 258 | IC50 (P388 [16]): 6.93 ng/mL (≈ 0.0177 µM); T/C [11]: 146%; T/C (Mus musculus [3]): 67%; T/C (Mus musculus [5]): 191%
